Tests used:
[1] = system: βARR1 MCL site mutants coupling to pβ2V2R; experiment: [3H]-Fen binding with βARR1 MCL site mutants; assay type: biochemical, Rattus norvegicus; details: mutations P131A, D135A, K138A, C140A and E283A
Description: The expression and purification of β-arrestins have been described previously[44],[62]–[64]. In brief, E. coli BL21 (DE3) pLysS cells (New England Biolabs: C2527I) carrying pGEX4T1-Rattus norvegicus βARR1 or βARR2 construct, with their C terminus truncated (at amino acid 393 or 394, respectively), were cultured in Terrific Broth (Teknova) medium at 37 °C. After OD600 reached 0.6–0.8, the cells were induced with 0.1 mM isopropyl-β-D-thiogalactopyranoside (IPTG) at 18 °C overnight. […] Eluted fractions were analysed by SDS–PAGE, pooled, concentrated using 30 kDa MWCO Amicon Ultra-15 Centrifugal Filter devices, flash-frozen in liquid nitrogen, and stored in aliquots at −80 °C. […] Protein concentrations for each protein were determined by ultraviolet absorption at 280 nm and extinction coefficients estimated using the ExPASy ProtParam tool[67].
To assess the effects of β-arrestin modulators on β-arrestin- or Gαs–βγ-promoted high-affinity agonist binding, [^3H]-Fen binding assays were performed using membranes from Sf9 cells expressing phosphorylated β2V2R (pβ2V2R) or β2AR[28]. […] Bound [^3H]-Fen was extracted overnight in scintillation fluid and quantified by scintillation counting. Specific binding was calculated by subtracting nonspecific from total binding.

[2] = system: βARR2 conformation (AT1R); experiment: Intramolecular FlAsH-BRET βARR2 conformational sensors; assay type: cell-based, human; details: 50 μM, 15 min; AngII 10 μM
Description: Intramolecular FlAsH-BRET assays[72] were performed in HEK293 βARR1/2-knockout cells transiently transfected using FuGENE4K with 2 μg total DNA per 15 cm dish. Cells were transfected with 1.5 μg of pcDNA3.1 encoding human AT1R and 0.4 μg of a plasmid encoding the indicated RLuc–β-arrestin2–FlAsH biosensors. Twenty-four hours after transfection, cells were replated into poly-D-lysine-coated 96-well white, clear-bottom plates at 100,000 cells per well in MEM supplemented with 10% FBS. Forty-eight hours after transfection, cells were labelled with FlAsH-EDT2 (FlAsH II In-Cell Tetracysteine Detection Kit, Thermo Fisher) at a final concentration of 2.5 μM for 30 min at room temperature. Following labelling, cells were washed twice with BAL wash buffer (250 μM 2,3-dimercapto-1-propanol in HBSS), then equilibrated in HBSS supplemented with 20 mM HEPES (pH 7.4). Modulators were applied at 50 μM for 15 min, followed by addition of Prolume Purple substrate (Nanolight Technologies). Cells were then stimulated with 10 μM angiotensin II. BRET signals were recorded using a CLARIOstar Plus plate reader in kinetic mode (480 nm donor, 530 nm acceptor) for 30 min, and peak values were used for quantification. ΔNet BRET was calculated by subtracting baseline values from each condition, including agonist alone, modulator alone, or agonist plus modulator.

C=C1C(=O)[C@]23[C@H](O)[C@H]1CC[C@H]2[C@@]12CO[C@]3(O)[C@@H](O)[C@@H]1C(C)(C)CC[C@@H]2O [Cmpd-5, (1S,4aR,5S,6S,6aR,9S,11aS,11bS,14R)-1,5,6,14-tetrahydroxy−4,4-dimethyl-8-methylenedecahydro-1H-6,11b-(epoxymethano)-6a,9-methanocyclohepta[a]naphthalen-7(8H)-one]
effect of mutation on Cmpd-5 inhibition of βARR1 coupling [1]: negligible effects
effect on AngII-induced active βarr2 FlAsH-BRET signature [2]: largely attenuates this active signature

From PMC13489962, “Small-molecule modulation of β-arrestins” (Nature, 2026)
